# Reference: PMC6534063, “Synthesis of modified 1,5-imino-D-xylitols as ligands for lysosomal β-glucocerebrosidase” (Monatshefte Fur Chemie, 2019)
# Like-named read-outs stand apart in the source and are kept apart here.
# Columns and labels:
# [1] = target: β-xylosidase from Thermoanaerobacterium saccharolyticum; settings: read-out: Ki (Xyl Therm. sac.), cited from earlier work
# [2] = target: T1, β-glucosidase/β-galactosidase from Agrobacterium sp. (ABG) (Agrobacterium sp., UniProt P12614); assay: Ki determination with β-glucosidase from Agrobacterium sp. (ABG); type: biochemical; settings: for Ki: 37 °C, 50 mM sodium phosphate buffer pH 7, 4-nitrophenyl glycopyranoside substrate, read-out: Ki β-Glu, ABG
# T1 construct: made in house; host or cells: E. coli
# T1 sequence (P12614 1-459): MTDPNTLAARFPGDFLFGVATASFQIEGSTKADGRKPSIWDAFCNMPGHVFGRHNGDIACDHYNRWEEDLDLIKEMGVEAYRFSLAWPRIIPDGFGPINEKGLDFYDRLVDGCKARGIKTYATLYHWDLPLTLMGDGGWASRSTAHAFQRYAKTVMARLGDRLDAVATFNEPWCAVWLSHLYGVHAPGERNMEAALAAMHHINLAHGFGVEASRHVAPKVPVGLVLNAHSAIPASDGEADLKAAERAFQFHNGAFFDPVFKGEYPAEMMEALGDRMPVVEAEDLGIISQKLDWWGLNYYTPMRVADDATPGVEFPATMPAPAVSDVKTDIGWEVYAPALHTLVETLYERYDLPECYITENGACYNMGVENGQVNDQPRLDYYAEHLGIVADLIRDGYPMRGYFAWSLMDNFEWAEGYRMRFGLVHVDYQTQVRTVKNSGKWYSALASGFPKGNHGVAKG
# From the text: (§1) For the biological evaluation of the synthesized DIX derivatives 19, 23, 26, and 28, we have probed a series of standard glycoside hydrolases, including β-glucosidase from Agrobacterium sp. (ABG), β-galactosidase from E. coli, Fabrazyme (commercial recombinant human lysosomal α-galactosidase), α-glucosidase S. cerevisiae, and human β-glucocerebrosidase GCase, to investigate ligand activity as well as selectivity. […] This increase in selectivity might be explained by the fact that compounds 26 and 28 combine the advantages of both features, the ethyl group at position C-1 locking the structure in the ^1C4 conformation as well as the lipophilic substituents at the ring nitrogen. The former has been implied for favorable ligand properties and the fitting into the active site of GCase. The latter interacts with the lipophilic entrance to the active site of GCase mimicking the ceramide residue of the natural substrate glucosyl ceramide. Compounds 26 and 28 will serve as building blocks for further functionalisation as proposed.
# (§2) Kinetic studies were performed at 37 °C in an appropriate buffer using a known concentration of enzyme (specific conditions depicted below). Ki determinations were performed using the corresponding 4-nitrophenyl α- or β-D-glycopyranoside as substrate. In a typical assay, the enzyme was incubated with different inhibitor concentrations for up to 5 min before initiating the reaction by the addition of substrate. The initial reaction rate was measured by monitoring the increase in absorbance at 400 nm for up to 10 min. Ki determinations were performed using at least two different substrate concentrations. For each inhibitor, a range of four-to-six inhibitor concentrations bracketing the Ki value ultimately determined was used for each substrate concentration. Dixon plots (1/v vs. [I]) were constructed to validate the use of the competitive inhibition model. The data were then fitted using non-linear regression analysis with Grafit 7.0.
# [3] = target: T2, human β-glucocerebrosidase (GCase) (Homo sapiens, UniProt P04062); assay: Ki determination with human β-glucocerebrosidase (GCase); type: biochemical; settings: 37 °C, citric acid/phosphate buffer with Triton X-100 and taurocholic acid pH 7.0, 4-nitrophenyl glycopyranoside substrate; read-out: Ki β-Glu, Gaucher (GCase)
# T2 construct: gift of Dr. Lorne Clarke, University of British Columbia
# T2 sequence (P04062 40-536): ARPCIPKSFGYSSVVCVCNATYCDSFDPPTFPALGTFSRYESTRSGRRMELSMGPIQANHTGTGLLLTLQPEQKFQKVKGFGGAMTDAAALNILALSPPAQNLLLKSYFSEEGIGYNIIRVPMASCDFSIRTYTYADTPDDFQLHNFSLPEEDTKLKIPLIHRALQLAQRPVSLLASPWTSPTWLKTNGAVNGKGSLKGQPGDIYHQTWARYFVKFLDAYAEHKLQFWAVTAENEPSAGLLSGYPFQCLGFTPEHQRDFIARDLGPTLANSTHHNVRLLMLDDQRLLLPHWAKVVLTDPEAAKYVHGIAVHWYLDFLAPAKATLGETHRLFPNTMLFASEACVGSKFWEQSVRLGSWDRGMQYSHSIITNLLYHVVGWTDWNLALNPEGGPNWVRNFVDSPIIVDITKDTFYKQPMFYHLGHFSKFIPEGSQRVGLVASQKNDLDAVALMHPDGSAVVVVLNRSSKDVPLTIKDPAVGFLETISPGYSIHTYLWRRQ
# From the text: as §1, §2
# [4] = target: T3, Fabrazyme (commercial recombinant human lysosomal α-galactosidase) (Homo sapiens, UniProt P06280); assay: Ki determination with Fabrazyme; type: biochemical; settings: 37 °C, citrate/phosphate buffer with Triton X-100 and taurocholic acid pH 5.5, 4-nitrophenyl glycopyranoside substrate; read-out: Ki α-Gal, Fabrazyme
# T3 construct: purchased Fabrazyme, a commercial product; received as a gift from Dr Lorne Clarke, University of British Columbia
# T3 sequence (P06280 32-429): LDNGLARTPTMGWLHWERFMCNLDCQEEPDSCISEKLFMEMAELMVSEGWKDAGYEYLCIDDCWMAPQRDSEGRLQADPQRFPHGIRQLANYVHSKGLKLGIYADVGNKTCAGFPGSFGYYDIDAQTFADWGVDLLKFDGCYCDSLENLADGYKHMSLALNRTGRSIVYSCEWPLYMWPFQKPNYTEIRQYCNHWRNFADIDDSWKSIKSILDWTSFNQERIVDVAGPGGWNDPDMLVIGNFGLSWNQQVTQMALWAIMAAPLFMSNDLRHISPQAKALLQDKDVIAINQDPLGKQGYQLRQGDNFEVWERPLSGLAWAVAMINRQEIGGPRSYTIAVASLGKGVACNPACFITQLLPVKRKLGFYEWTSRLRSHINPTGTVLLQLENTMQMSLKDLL
# From the text: as §1, §2
# [5] = target: T4, E.coli lac z β-galactosidase (Escherichia coli, UniProt P00722); assay: Ki determination with β-galactosidase from E. coli; type: biochemical; settings: 37 °C, 50 mM sodium phosphate, 1.0 mM MgCl2 pH 7, 4-nitrophenyl glycopyranoside substrate; read-out: Ki β-Gal, E. coli
# T4 construct: purchased Sigma-Aldrich
# T4 sequence (P00722 2-1024 limits assumed): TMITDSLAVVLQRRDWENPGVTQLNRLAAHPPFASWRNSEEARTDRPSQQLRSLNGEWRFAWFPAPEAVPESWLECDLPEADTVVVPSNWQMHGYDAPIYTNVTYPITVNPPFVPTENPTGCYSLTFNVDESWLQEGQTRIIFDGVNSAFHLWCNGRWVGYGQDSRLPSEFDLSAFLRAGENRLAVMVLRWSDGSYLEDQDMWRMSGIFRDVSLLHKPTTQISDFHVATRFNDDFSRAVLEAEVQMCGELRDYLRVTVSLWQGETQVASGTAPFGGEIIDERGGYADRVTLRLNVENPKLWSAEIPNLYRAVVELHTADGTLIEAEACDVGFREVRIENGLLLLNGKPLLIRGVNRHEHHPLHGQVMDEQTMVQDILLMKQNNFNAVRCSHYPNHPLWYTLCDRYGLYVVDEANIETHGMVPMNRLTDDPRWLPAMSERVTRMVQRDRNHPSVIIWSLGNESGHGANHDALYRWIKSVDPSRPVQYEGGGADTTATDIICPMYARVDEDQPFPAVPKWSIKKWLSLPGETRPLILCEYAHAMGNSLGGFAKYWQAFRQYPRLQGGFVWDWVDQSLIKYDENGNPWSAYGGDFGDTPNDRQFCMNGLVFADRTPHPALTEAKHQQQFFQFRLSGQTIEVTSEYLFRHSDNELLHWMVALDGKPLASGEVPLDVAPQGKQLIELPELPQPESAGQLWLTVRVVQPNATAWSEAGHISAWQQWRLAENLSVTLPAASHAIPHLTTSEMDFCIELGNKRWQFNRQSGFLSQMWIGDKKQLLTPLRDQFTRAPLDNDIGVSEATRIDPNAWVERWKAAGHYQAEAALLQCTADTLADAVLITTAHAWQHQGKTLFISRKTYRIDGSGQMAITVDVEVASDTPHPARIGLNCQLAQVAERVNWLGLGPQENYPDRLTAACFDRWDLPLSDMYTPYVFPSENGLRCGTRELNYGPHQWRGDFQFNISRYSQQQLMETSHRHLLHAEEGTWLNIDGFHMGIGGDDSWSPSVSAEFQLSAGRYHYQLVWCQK
# From the text: as §1, §2
# [6] = target: S. cerevisiae α-glucosidase; assay: Ki determination with α-glucosidase S. cerevisiae; type: biochemical; settings: 37 °C, 50 mM sodium phosphate buffer pH 7, PNP α-Glc substrate; read-out: Ki α-Glu, S. cer.
# From the text: as §1, §2
# [7] = target: human lysosomal β-glucocerebrosidase (GCase); settings: cited from earlier work; for IC50: compounds 10a-10b
# [8] = D-xylo 1-C-iminosugar glycosides 14
# [9] = C-1 alkyl modified DIX analogues 15
smiles,measurement,setting,value
COC(=O)CCN1C[C@@H](O)[C@H](O)[C@@H](O)C1 [Compound 7b],Ki,[1]; N-modified DIX derivatives 7,35 µM
"CCOC(=O)CC[C@H]1NC[C@@H](O)[C@H](O)[C@H]1O [Compound 19, (1R)-1-C-(Ethyloxycarbonylethyl)-1,5-dideoxy-1,5-imino-D-xylitol]",Ki,[2],2.1 µM
same,Ki,[3],5.1 µM
same,Ki,[4],> 1000 µM
same,Ki,[5],> 1000 µM
same,Ki,[6],> 1000 µM
"O[C@@H]1[C@@H](O)[C@@H](CCCCCOCC23CC4CC(CC(C4)C2)C3)NC[C@H]1O [R^1 = C-C, n=2, R^2 =]",Ki,[7]; [8],0.001 µM
N#C[C@H]1NC[C@@H](O)[C@H](O)[C@H]1O [R = CN],Ki,[7]; [9],34 µM
"COC(=O)[C@H](CCCCN1C[C@@H](O)[C@H](O)[C@@H](O)C1)NS(=O)(=O)c1cccc2c(N(C)C)cccc12 [8, R^1 = NHdansyl, R^2 = OMe]",Ki,[1]; N-modified DIX derivatives 8,10 µM
CCCCCCCCCCCC[C@H]1NC[C@@H](O)[C@H](O)[C@H]1O [R = C12H25],Ki,[7]; 1-C-alkyl imino-D-xylitols 9,0.031 µM
CCCCCCCCC[C@H]1NC[C@@H](O)[C@H](O)[C@H]1O [R = C9H19],Ki,[7]; 1-C-alkyl imino-D-xylitols 9,0.0022 µM
CCCCCCO[C@H]1CNC[C@@H](O)[C@@H]1O [Compound 10b],IC50,[7],0.009 µM
"COC(=O)[C@H](CCCCN1C[C@@H](O)[C@H](O)[C@@H](O)C1)NC(=O)[C@H](CCCCN1C[C@@H](O)[C@H](O)[C@@H](O)C1)NS(=O)(=O)c1cccc2c(N(C)C)cccc12 [8, R^1 = NHdansyl, R^2 =]",Ki,[1]; N-modified DIX derivatives 8,21 µM
N#CCCN1C[C@@H](O)[C@H](O)[C@@H](O)C1 [Compound 7a],Ki,[1]; N-modified DIX derivatives 7,24 µM
CC(C)[C@H]1NC[C@@H](O)[C@H](O)[C@H]1O [R = CH(CH3)2],Ki,[7]; [9],12.4 µM
CC[C@H]1NC[C@@H](O)[C@H](O)[C@H]1O [R = CH2CH3],Ki,[7]; [9],2.3 µM
CCC[C@H]1NC[C@@H](O)[C@H](O)[C@H]1O [R = (CH2)2CH3],Ki,[7]; [9],1.3 µM
"O[C@@H]1[C@@H](O)[C@@H](CC=CCCOCC23CC4CC(CC(C4)C2)C3)NC[C@H]1O [R^1 = C=C, n=2, R^2 =]",Ki,[7]; [8],0.002 µM
"CC[C@@H]1[C@H](O)[C@@H](O)[C@H](O)CN1CCCCCC(=O)NCCc1c[nH]cn1 [Compound 28, (1R)-1-C-Ethyl-N-[(imidazo-4-yl)ethylaminocarbonylpentyl]-1,5-dideoxy-1,5-imino-D-xylitol]","inhibition of β-Glu ABG, in words",[2],No detectable inhibition
same,Ki,[2],> 1000 µM
same,Ki,[3],4.1 µM
same,Ki,[4],> 1000 µM
same,Ki,[5],> 1000 µM
same,Ki,[6],> 1000 µM
"CC[C@@H]1[C@H](O)[C@@H](O)[C@H](O)CN1CCCCCC(=O)OC [Compound 26, (1R)-1-C-Ethyl-N-(methyloxycarbonylpentyl)-1,5-dideoxy-1,5-imino-D-xylitol]","inhibition of β-Glu ABG, in words",[2],No detectable inhibition
same,Ki,[2],> 1000 µM
same,Ki,[3],57 µM
same,Ki,[4],> 1000 µM
same,Ki,[5],> 1000 µM
same,Ki,[6],> 1000 µM
OCC[C@H]1NC[C@@H](O)[C@H](O)[C@H]1O [R = (CH2)2OH],Ki,[7]; [9],26.7 µM
"O=C(CC[C@H]1NC[C@@H](O)[C@H](O)[C@H]1O)NCCc1c[nH]cn1 [Compound 23, (1R)-1-C-[(Imidazo-4-yl)ethylaminocarbonylethyl]-1,5-dideoxy-1,5-imino-D-xylitol]",Ki,[2],1.6 µM
same,Ki,[3],1.1 µM
same,Ki,[4],> 1000 µM
same,Ki,[5],> 1000 µM
same,Ki,[6],> 1000 µM
"COC(=O)[C@H](CCCCN1C[C@@H](O)[C@H](O)[C@@H](O)C1)N1C[C@@H](O)[C@H](O)[C@@H](O)C1 [8, R^1 = R^2 = OMe]",Ki,[1]; N-modified DIX derivatives 8,25 µM
CCCCCC[C@H]1NC[C@@H](O)[C@H](O)[C@H]1O [Compound 10a],IC50,[7],0.019 µM
